The subject of the experiment is PER1 gene expression in skin cells. The experiment is described as follows: PER1 gene expression in skin cells. The format is cell-based. The source says: A specific example includes a botanical extract from Echinacea purpurea sold by Symrise under the brand name Symfinity™ 1298 which is an extract of Echinacea purpurea which is standardized during the extraction process to contain about 3% by weight of the total extract composition of cichoric acid. Echinacea extracts from different sources will vary in cichoric acid content, and as such will yield variable results in induction of PER1 gene expression. […] Moreover, each species of Echinacea will differ in content of phenolic and cichoric acids. Ethanolic extract of the roots of Echinacea purpura will provide more cichoric acid than ethanolic extracts of Echineacea angustifolia or Echinacea pallida. The content of active ingredients in any extract is also very dependent on the method of extraction. For example, it is known that in many cases enzymatic browning during the extraction process will reduce the phenolic acid content of the resulting extract.

Turning to `O=C(/C=C/c1ccc(O)c(O)c1)O[C@@H](C(=O)O)[C@@H](O)C(=O)O` [caftaric acid], the PER1 gene expression result was “does not increase”.

For the origin of these results see US10383815B2, “Method and compositions for improving selective catabolysis in cells of keratin surfaces” (ELC Management LLC, priority 2012, dated 2019).
